# Earlier results in patent US8354388B2, “Inhibitors of MRP4 for the treatment of vascular disorders” (INSERM (Institut National de la Sante et de la Recherche …, priority 2007, dated 2013).
# Target: T1, MRP4 (Homo sapiens, UniProt O15439)
# T1 sequence (O15439 1-1325): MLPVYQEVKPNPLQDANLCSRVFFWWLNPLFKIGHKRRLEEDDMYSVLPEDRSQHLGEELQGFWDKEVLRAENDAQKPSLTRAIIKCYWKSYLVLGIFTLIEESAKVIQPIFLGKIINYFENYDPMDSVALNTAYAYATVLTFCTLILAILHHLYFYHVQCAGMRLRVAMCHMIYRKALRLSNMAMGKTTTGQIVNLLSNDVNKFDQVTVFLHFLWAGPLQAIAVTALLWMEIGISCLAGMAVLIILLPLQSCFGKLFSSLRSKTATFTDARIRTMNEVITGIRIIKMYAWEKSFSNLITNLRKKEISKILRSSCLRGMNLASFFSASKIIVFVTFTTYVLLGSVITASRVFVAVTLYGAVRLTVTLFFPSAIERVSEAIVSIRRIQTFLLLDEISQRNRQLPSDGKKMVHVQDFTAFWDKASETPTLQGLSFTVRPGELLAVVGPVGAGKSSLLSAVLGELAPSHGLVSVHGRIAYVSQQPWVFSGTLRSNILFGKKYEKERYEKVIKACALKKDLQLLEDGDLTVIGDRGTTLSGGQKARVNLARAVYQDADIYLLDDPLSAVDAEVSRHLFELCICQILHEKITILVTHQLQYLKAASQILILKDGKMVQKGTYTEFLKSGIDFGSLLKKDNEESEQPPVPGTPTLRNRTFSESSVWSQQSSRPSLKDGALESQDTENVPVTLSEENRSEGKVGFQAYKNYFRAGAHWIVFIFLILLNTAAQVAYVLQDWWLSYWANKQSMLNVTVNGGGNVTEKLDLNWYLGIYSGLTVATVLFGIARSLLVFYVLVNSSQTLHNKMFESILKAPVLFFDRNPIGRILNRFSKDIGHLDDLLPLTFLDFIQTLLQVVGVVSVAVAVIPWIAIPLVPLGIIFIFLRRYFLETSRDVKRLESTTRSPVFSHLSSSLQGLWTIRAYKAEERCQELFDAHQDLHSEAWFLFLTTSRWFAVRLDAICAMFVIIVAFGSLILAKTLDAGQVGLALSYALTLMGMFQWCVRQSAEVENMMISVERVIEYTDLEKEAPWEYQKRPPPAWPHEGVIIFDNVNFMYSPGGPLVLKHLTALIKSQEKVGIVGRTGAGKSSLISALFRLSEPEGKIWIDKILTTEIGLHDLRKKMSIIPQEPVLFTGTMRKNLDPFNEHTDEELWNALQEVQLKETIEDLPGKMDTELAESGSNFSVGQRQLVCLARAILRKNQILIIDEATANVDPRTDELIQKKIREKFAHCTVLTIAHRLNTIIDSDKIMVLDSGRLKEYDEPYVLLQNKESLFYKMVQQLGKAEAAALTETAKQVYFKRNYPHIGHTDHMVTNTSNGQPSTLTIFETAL
# Conditions: literature reference 41; cited from earlier work
structure (smiles),measurement,value
CCCc1nn(C)c2c(=O)[nH]c(-c3cc(S(=O)(=O)N4CCN(C)CC4)ccc3OCC)nc12 [Sildenafil],reported MRP4 inhibition,MRP4 inhibitor
